Data from ChEMBL document CHEMBL5120927, “LEGO-Lipophosphonoxins: A Novel Approach in Designing Membrane Targeting Antimicrobials” (J Med Chem, 2022).
Converted amounts (≈) assume the structure as drawn.

What was measured:
[1] = tested on: Staphylococcus aureus; assay: Antibacterial activity against antibiotic resistant Staphylococcus aureus 4717/B assessed as reduction in microbial growth incubated for 24 hrs by microdilution assay; assay type: functional
[2] = tested on: Staphylococcus aureus; assay: Antibacterial activity against antibiotic resistant Staphylococcus aureus 4862/C assessed as reduction in microbial growth incubated for 24 hrs by microdilution assay; assay type: functional
[3] = tested on: Staphylococcus aureus; assay: Antibacterial activity against antibiotic resistant Staphylococcus aureus 4904/C assessed as reduction in microbial growth incubated for 24 hrs by microdilution assay; assay type: functional
[4] = tested on: Staphylococcus aureus; assay: Antibacterial activity against wild type methicillin resistant Staphylococcus aureus 4968/C assessed as reduction in microbial growth incubated for 24 hrs by microdilution assay; assay type: functional
[5] = tested on: Staphylococcus aureus; assay: Antibacterial activity against antibiotic resistant Staphylococcus aureus 4463/A assessed as reduction in microbial growth incubated for 24 hrs by microdilution assay; assay type: functional
[6] = tested on: Staphylococcus aureus; assay: Antibacterial activity against antibiotic resistant Staphylococcus aureus 4883/C assessed as reduction in microbial growth incubated for 24 hrs by microdilution assay; assay type: functional
[7] = tested on: Staphylococcus aureus; assay: Antibacterial activity against antibiotic resistant Staphylococcus aureus 4461/A assessed as reduction in microbial growth incubated for 24 hrs by microdilution assay; assay type: functional
[8] = tested on: Staphylococcus aureus; assay: Antibacterial activity against antibiotic resistant Staphylococcus aureus 4788/B assessed as reduction in microbial growth incubated for 24 hrs by microdilution assay; assay type: functional
[9] = tested on: Staphylococcus aureus; assay: Antibacterial activity against antibiotic resistant Staphylococcus aureus 77/CF assessed as reduction in microbial growth incubated for 24 hrs by microdilution assay; assay type: functional
[10] = tested on: Staphylococcus aureus; assay: Antibacterial activity against wild type methicillin resistant Staphylococcus aureus 5017/C assessed as reduction in microbial growth incubated for 24 hrs by microdilution assay; assay type: functional
[11] = tested on: Staphylococcus aureus; assay: Antibacterial activity against antibiotic resistant Staphylococcus aureus 4880/C assessed as reduction in microbial growth incubated for 24 hrs by microdilution assay; assay type: functional
[12] = tested on: Staphylococcus aureus; assay: Antibacterial activity against antibiotic resistant Staphylococcus aureus 4460/A assessed as reduction in microbial growth incubated for 24 hrs by microdilution assay; assay type: functional
[13] = tested on: Staphylococcus aureus; assay: Antibacterial activity against antibiotic resistant Staphylococcus aureus 4515/A assessed as reduction in microbial growth incubated for 24 hrs by microdilution assay; assay type: functional
[14] = tested on: Staphylococcus aureus; assay: Antibacterial activity against antibiotic resistant Staphylococcus aureus 78/CF assessed as reduction in microbial growth incubated for 24 hrs by microdilution assay; assay type: functional
[15] = tested on: Staphylococcus aureus; assay: Antibacterial activity against wild type methicillin resistant Staphylococcus aureus 4561/A assessed as reduction in microbial growth incubated for 24 hrs by microdilution assay; assay type: functional
[16] = tested on: Staphylococcus aureus; assay: Antibacterial activity against antibiotic resistant Staphylococcus aureus 4502/A assessed as reduction in microbial growth incubated for 24 hrs by microdilution assay; assay type: functional
[17] = tested on: Staphylococcus aureus; assay: Antibacterial activity against antibiotic resistant Staphylococcus aureus 4504/A assessed as reduction in microbial growth incubated for 24 hrs by microdilution assay; assay type: functional
[18] = tested on: Staphylococcus aureus; assay: Antibacterial activity against antibiotic resistant Staphylococcus aureus 4740/B assessed as reduction in microbial growth incubated for 24 hrs by microdilution assay; assay type: functional
[19] = tested on: Staphylococcus aureus; assay: Antibacterial activity against antibiotic resistant Staphylococcus aureus 4679/B assessed as reduction in microbial growth incubated for 24 hrs by microdilution assay; assay type: functional
[20] = tested on: Staphylococcus aureus; assay: Antibacterial activity against antibiotic resistant Staphylococcus aureus 4738/B assessed as reduction in microbial growth incubated for 24 hrs by microdilution assay; assay type: functional
[21] = tested on: Staphylococcus aureus; assay: Antibacterial activity against antibiotic resistant Staphylococcus aureus 5079/C assessed as reduction in microbial growth incubated for 24 hrs by microdilution assay; assay type: functional
[22] = tested on: Staphylococcus aureus; assay: Antibacterial activity against antibiotic resistant Staphylococcus aureus 4482/A assessed as reduction in microbial growth incubated for 24 hrs by microdilution assay; assay type: functional
[23] = tested on: Staphylococcus aureus; assay: Antibacterial activity against antibiotic resistant Staphylococcus aureus 4557/A assessed as reduction in microbial growth incubated for 24 hrs by microdilution assay; assay type: functional
[24] = tested on: Staphylococcus aureus; assay: Antibacterial activity against antibiotic resistant Staphylococcus aureus 4566/A assessed as reduction in microbial growth incubated for 24 hrs by microdilution assay; assay type: functional
[25] = tested on: Staphylococcus aureus; assay: Antibacterial activity against […] Staphylococcus aureus 4461/A assessed as reduction in microbial growth incubated for 24 hrs by microdilution assay; assay type: functional
[26] = tested on: Staphylococcus aureus; assay: Antibacterial activity against wild type Staphylococcus aureus 4561/A assessed as reduction in microbial growth incubated for 24 hrs by microdilution assay; assay type: functional
[27] = tested on: Staphylococcus aureus; assay: Antibacterial activity against wild type Staphylococcus aureus 4788/B assessed as reduction in microbial growth incubated for 24 hrs by microdilution assay; assay type: functional
[28] = tested on: Staphylococcus aureus; assay: Antibacterial activity against wild type Staphylococcus aureus 4738/B assessed as reduction in microbial growth incubated for 24 hrs by microdilution assay; assay type: functional
[29] = tested on: Staphylococcus aureus; assay: Antibacterial activity against wild type Staphylococcus aureus 4557/A assessed as reduction in microbial growth incubated for 24 hrs by microdilution assay; assay type: functional
[30] = tested on: Staphylococcus aureus; assay: Antibacterial activity against wild type Staphylococcus aureus 4717/B assessed as reduction in microbial growth incubated for 24 hrs by microdilution assay; assay type: functional
[31] = tested on: Staphylococcus aureus; assay: Antibacterial activity against […] Staphylococcus aureus 4460/A assessed as reduction in microbial growth incubated for 24 hrs by microdilution assay; assay type: functional
[32] = tested on: Staphylococcus aureus; assay: Antibacterial activity against wild type Staphylococcus aureus 4968/C assessed as reduction in microbial growth incubated for 24 hrs by microdilution assay; assay type: functional
[33] = tested on: Staphylococcus aureus; assay: Antibacterial activity against wild type Staphylococcus aureus 78/CF assessed as reduction in microbial growth incubated for 24 hrs by microdilution assay; assay type: functional
[34] = tested on: Staphylococcus aureus; assay: Antibacterial activity against wild type Staphylococcus aureus 4883/C assessed as reduction in microbial growth incubated for 24 hrs by microdilution assay; assay type: functional
[35] = tested on: Staphylococcus aureus; assay: Antibacterial activity against wild type Staphylococcus aureus 5079/C assessed as reduction in microbial growth incubated for 24 hrs by microdilution assay; assay type: functional
[36] = tested on: Staphylococcus aureus; assay: Antibacterial activity against wild type Staphylococcus aureus 4904/C assessed as reduction in microbial growth incubated for 24 hrs by microdilution assay; assay type: functional
[37] = tested on: Staphylococcus aureus; assay: Antibacterial activity against wild type Staphylococcus aureus 4482/A assessed as reduction in microbial growth incubated for 24 hrs by microdilution assay; assay type: functional
[38] = tested on: Staphylococcus aureus; assay: Antibacterial activity against wild type Staphylococcus aureus 4740/B assessed as reduction in microbial growth incubated for 24 hrs by microdilution assay; assay type: functional
[39] = tested on: Staphylococcus aureus; assay: Antibacterial activity against wild type Staphylococcus aureus 4515/A assessed as reduction in microbial growth incubated for 24 hrs by microdilution assay; assay type: functional
[40] = tested on: Staphylococcus aureus; assay: Antibacterial activity against […] Staphylococcus aureus 4463/A assessed as reduction in microbial growth incubated for 24 hrs by microdilution assay; assay type: functional
[41] = tested on: Staphylococcus aureus; assay: Antibacterial activity against wild type Staphylococcus aureus 4566/A assessed as reduction in microbial growth incubated for 24 hrs by microdilution assay; assay type: functional
[42] = tested on: Staphylococcus aureus; assay: Antibacterial activity against wild type Staphylococcus aureus 4504/A assessed as reduction in microbial growth incubated for 24 hrs by microdilution assay; assay type: functional
[43] = tested on: Staphylococcus aureus; assay: microbe, parasite or virus in culture; conditions: 4862/C, 24 h
Description: Antibacterial activity against wild type Staphylococcus aureus 4862/C assessed as reduction in microbial growth incubated for 24 hrs by microdilution assay

[44] = tested on: Staphylococcus aureus; assay: Antibacterial activity against wild type Staphylococcus aureus 4502/A assessed as reduction in microbial growth incubated for 24 hrs by microdilution assay; assay type: functional
[45] = tested on: Staphylococcus aureus; assay: Antibacterial activity against wild type Staphylococcus aureus 4679/B assessed as reduction in microbial growth incubated for 24 hrs by microdilution assay; assay type: functional
[46] = tested on: Staphylococcus aureus; assay: microbe, parasite or virus in culture; conditions: 4880/C, 24 h
Description: Antibacterial activity against wild type Staphylococcus aureus 4880/C assessed as reduction in microbial growth incubated for 24 hrs by microdilution assay

Row | Compound | MIC [4] [µg/mL] | MIC [9] [µg/mL] | MIC [10] [µg/mL] | MIC [15] [µg/mL] | MIC [16] [µg/mL] | MIC [17] [µg/mL] | MIC [18] [µg/mL] | MIC [19] [µg/mL] | MIC [25] [µg/mL] | MIC [27] [µg/mL] | MIC [28] [µg/mL] | MIC [29] [µg/mL] | MIC [30] [µg/mL] | MIC [31] [µg/mL] | MIC [33] [µg/mL] | MIC [34] [µg/mL] | MIC [35] [µg/mL] | MIC [36] [µg/mL] | MIC [37] [µg/mL] | MIC [39] [µg/mL] | also measured
1 | CC1(C)S[C@@H]2[C@H](NC(=O)Cc3ccccc3)C(=O)N2[C@H]1C(=O)O [PENICILLIN G] | > 4 | 0.5 | > 4 | > 2 | 0.25 | 0.25 | 0.25 | 0.5 |  |  |  |  |  |  |  |  |  |  |  |  | MIC [1]: 0.5 µg/mL; MIC [2]: 1 µg/mL; MIC [3]: 0.25 µg/mL; MIC [5]: 0.25 µg/mL; MIC [6]: 0.25 µg/mL; MIC [7]: 1 µg/mL; MIC [8]: 0.25 µg/mL; MIC [11]: 0.25 µg/mL; MIC [12]: 1 µg/mL; MIC [13]: 0.5 µg/mL; MIC [14]: 0.25 µg/mL; MIC [20]: 1 µg/mL; MIC [21]: 0.25 µg/mL; MIC [22]: 2 µg/mL; MIC [23]: 0.25 µg/mL; MIC [24]: 0.25 µg/mL
2 | GENTAMICIN |  | > 32 |  |  | > 32 | > 32 |  | > 32 | 0.25 | 0.25 | 0.25 | 1 | 0.25 | 0.25 | 1 | 0.25 | 0.25 | 0.25 | 0.25 | 0.25 | MIC [26]: 0.25 µg/mL; MIC [32]: 0.25 µg/mL; MIC [38]: 0.25 µg/mL; MIC [40]: 0.25 µg/mL; MIC [41]: 0.25 µg/mL
3 | CC[C@H]1OC(=O)[C@H](C)[C@@H](O[C@H]2C[C@@](C)(OC)[C@@H](O)[C@H](C)O2)[C@H](C)[C@@H](O[C@@H]2O[C@H](C)C[C@H](N(C)C)[C@H]2O)[C@](C)(O)C[C@@H](C)C(=O)[C@H](C)[C@@H](O)[C@]1(C)O [ERYTHROMYCIN] | > 16 | > 16 | > 16 | > 4 |  |  | > 16 |  | 0.25 | 0.125 | 0.25 | 0.25 | 0.25 | 0.25 | 0.125 | 0.25 | 0.25 | 0.25 | 0.25 | 0.25 | MIC [42]: 0.25 µg/mL; MIC [43]: 0.25 µg/mL (≈ 0.341 µM); MIC [44]: 0.125 µg/mL; MIC [45]: 0.25 µg/mL; MIC [40]: 0.25 µg/mL; MIC [41]: 0.25 µg/mL; MIC [46]: 0.25 µg/mL (≈ 0.341 µM)
